Results published in US20200377545A1, “NOVEL ANTI-TUMOR COMPOUND AND APPLICATION THEREOF IN PREPARING ANTI-TUMOR DRUGS” (HANGZHOU XINGAO BIOTECHNOLOGY CO., LTD, priority 2018, published 2020).

Legend:
Assay type in all cases: in vivo
[1] = tested on: human melanoma cell line A375; assay: Mouse subcutaneous transplanted tumor of human melanoma cell line A375; settings: once every two days for 20 days, cGAMP 5 mg/kg subcutaneous, oxaliplatin 2 mg/kg oral, platinum complexes 6 mg/kg oral; for Mean tumor weight (g): n = 10, mean ± SD; for Mean tumor inhibition rate (%): vs negative control group
Method: (§1) BALB/c ordinary mice, male, 18-20 g in weight, 6-8 weeks old, SPF grade, purchased from Shanghai SLAC Laboratory Animal Co., Ltd.[Laboratory Animal Quality Certificate Number: SCXK (Shanghai) 2007-0005].
(§2) Mice are orally administrated, and [cis-Pt(NH3)2(cGAMP)] and the tetravalent platinum complex cis-[Pt(cGAMP)(NH3)2(Cl)(OH)] are both set to be 6 mg/kg in one dose group.
(§3) Positive control: cGAMP, 5 mg/kg in dose (subcutaneous) oxaliplatin, 2 mg/kg in dose (oral)
(§4) Administration routes: control group: cGAMP, 5 mg/kg in dose (subcutaneous)
(§5) Oxaliplatin, 2 mg/kg in dose (oral);
(§6) Immune activator platinum complex, 6 mg/kg in dose (oral)
(§7) Administration volume: 100 μl/animal; number of times of administration: continuous administration for 20 days, once every two days.
(§8) Mouse colorectal cancer cell line CT26, mouse Lewis lung cancer cell line LL/2, human ovarian cancer cell line SK-OV-3, and human melanoma cell line A375, which all purchased from the Cell Bank of the Chinese Academy of Sciences.
(§9) The 5 groups are administered once every two days for 20 consecutive days. 20 days later, the mice are killed and the tumors are weighed. Tumor inhibition rate=[1−mean tumor weight of experimental group/mean tumor weight of group A)]×100%.
(§10) Data is expressed with x±s, and processed with SPSS10.0 software. The significance of the difference between tumor weights of all groups is compared by a one-way ANOVA test. The significance level a=0.05.

[2] = tested on: mouse Lewis lung cancer cell line LL/2; assay: Subcutaneous transplanted tumor of mouse Lewis lung cancer cell line LL-2 in mice; settings: C57 mouse, LL-2 tumor, once every two days for 20 days, cGAMP 5 mg/kg subcutaneous, oxaliplatin 2 mg/kg oral, platinum complexes 6 mg/kg oral; for Mean tumor weight (g): n = 10, mean ± SD; for Mean tumor inhibition rate (%): vs negative control group
Method: as §2, §3, §4, §5, §6, §7, §8, §9, §10

[3] = tested on: human ovarian cancer cell line SK-OV-3; assay: Mouse subcutaneous transplanted tumor of human ovarian cancer cell line SK-OV-3; settings: SK-OV-3 tumor, once every two days for 20 days, cGAMP 5 mg/kg subcutaneous, oxaliplatin 2 mg/kg oral, platinum complexes 6 mg/kg oral; for Mean tumor weight (g): n = 10, mean ± SD; for Mean tumor inhibition rate (%): vs negative control group
Method: as §1, §2, §3, §4, §5, §6, §7, §8, §9, §10

[4] = tested on: mouse colorectal cancer cell line CT26; assay: Subcutaneous transplanted tumor of mouse colorectal cancer cell CT26 in mice; settings: for Mean tumor weight (g) / Mean tumor inhibition rate (%): BalB/C mouse, CT26 tumor, once every two days for 20 days, cGAMP 5 mg/kg subcutaneous, oxaliplatin 2 mg/kg oral, platinum complexes 6 mg/kg oral; for Mean tumor weight (g): n = 10, mean ± SD; for Mean tumor inhibition rate (%): vs negative control group; for Inhibition of the growth of subcutaneous transplanted tumors (result in words): summary statement for all four tumor models (Tables 1-4), 20 days after administration, tumor weights significantly lower than negative control (P<0.05, P<0.01)
Method: as §1, §2, §3, §4, §5, §6, §7, §8, §9, §10

Molecule	Mean tumor weight (g) [1]	Mean tumor inhibition rate (%) [1] [%]	Mean tumor weight (g) [2]	Mean tumor inhibition rate (%) [2] [%]	Mean tumor weight (g) [3]	Mean tumor inhibition rate (%) [3] [%]	Mean tumor weight (g) [4]	Mean tumor inhibition rate (%) [4] [%]	Inhibition of the growth of subcutaneous transplanted tumors (result in words) [4]
O=C1[O][Pt]2([NH][C@@H]3CCCC[C@H]3[NH]2)[O]C1=O [Oxaliplatin, oxaliplatin]	0.989 ± 0.215 (g)	62.4	0.963 ± 0.223 (g)	62.4	0.989 ± 0.215 (g)	62.6	0.963 ± 0.223 (g)	57.3	obviously inhibit the growth of tumors
Nc1nc2c(ncn2[C@@H]2O[C@@H]3COP(=O)(O)O[C@H]4[C@@H](O)[C@H](n5cnc6c(N)ncnc65)O[C@@H]4COP(=O)(O)O[C@@H]2[C@@H]3O)c(=O)[nH]1 [cGAMP, Cyclic [G(2′,5′)pA(3′,5′)p]]	0.969 ± 0.216 (g)	63.0	0.980 ± 0.214 (g)	56.6	0.997 ± 0.212 (g)	62.3	0.840 ± 0.218 (g)	62.8	obviously inhibit the growth of tumors
cis-[Pt(cGAMP)(NH3)2(Cl)(OH)] [cGAMP-tetravalent cisplatin]	0.794 ± 0.224 (g)	69.8	0.784 ± 0.232 (g)	69.4	0.813 ± 0.226 (g)	69.3	0.689 ± 0.224 (g)	69.5	obviously inhibit the growth of tumors
cis-[Pt(cGAMP)(NH3)2] [cGAMP-cisplatin]	0.786 ± 0.218 (g)	70.1	0.758 ± 0.226 (g)	70.4	0.789 ± 0.218 (g)	70.2	0.648 ± 0.216 (g)	71.3	obviously inhibit the growth of tumors
